Results taken from patent publication US6762029B2, “Methods of identifying agents that modulate P2Y12 receptor activity” (Portola Pharmaceuticals, Inc., priority 1999, dated 2004).
Blank lines part the entries; values can stand above or below the compound they belong to.

Assays:
P2Y12 receptor [1] = target: T1, P2Y12 receptor (UniProt Q9H244); assay: Two-electrode voltage-clamp of Xenopus oocytes expressing P2Y12 with Kir3.1 and 3.4: agonist-stimulated potassium currents; type: cell-based; settings: FIG. 1C; for EC50: Xenopus oocytes with Kir3.1 and 3.4, currents normalized to 10 μM ADP, Hill fit
T1 construct: EC50, potassium currents in oocytes; other: Xenopus oocytes with Kir3.1 and 3.4; currents normalized to 10 μM ADP; Hill; potency compared to ADP
Description: (§1) Defolliculated Xenopus laevis oocytes were injected with a positive 500 clone pool (10 ng), rP2Y12 (10 pg), hP2Y12 (50 pg), Kir3.1, Kir3.4, PTX and hm2 (1 ng each) cRNAs as indicated. Three to seven days after injection, two-electrode voltage-clamp recordings were performed using a Geneclamp 500 amplifier (Axon Instruments) and a Maclab A/D converter (Maclab). Membrane potentials were clamped at −70 mV while the recording chamber was perfused at a rate of 2 ml/min with a solution containing (in mM) 70 KCl, 20 NaCl, 3 MgCl2, 5 HEPES, pH 7.4, at room temperature. The KCl was replaced with NaCl to examine responses in zero potassium. Agonists and antagonists (Roche Molecular Biochemistry or Sigma) were diluted in the recording solution. Experiments using C1330-7 included 0.1% dimethylsulfoxide to enhance its solubility in the perfusate.
(§2) FIG. 1(A). Activation of potassium-dependent currents in Xenopus oocytes expressing P2Y12 with Kir3.1 and 3.4. ADP (10 μM) was applied (short bars) in the presence or absence (long bar) of extracellular potassium (70 mM) while recording membrane currents in the whole-cell voltage clamp configuration. […] (B) ADP-selective stimulation of potassium channel-dependent currents by P2Y12 occurs via a pertussis toxin-sensitive pathway. UDP, adenosine (A), ATP-α-S or ADP (10 μM each) were sequentially applied to oocytes expressing the rat or human receptor with or without Kir3.1, 3.4 and pertussis toxin (PTX). (C) The agonist profile of P2Y12 recapitulates that observed for the Gi-coupled platelet ADP receptor. Concentration-response curves for ADP and 2MeSADP are presented. Membrane currents were normalized in each oocyte to a response obtained with 10 μM ADP. Each point represents the mean values (+/−s.d.) from five independent oocytes. The Hill equation was used to fit the response data.

hP2Y12 [2] = target: T2, hP2Y12 (Homo sapiens, UniProt Q9H244); assay: Forskolin-stimulated cAMP accumulation in CHO cells stably expressing hP2Y12; type: cell-based
T2 construct: expressed in transfected cells; host or cells: Xenopus laevis oocytes injected with hP2Y12 cRNA (50 pg) plus Kir3.1 and Kir3.4 cRNAs
T2 sequence (Q9H244 whole entry): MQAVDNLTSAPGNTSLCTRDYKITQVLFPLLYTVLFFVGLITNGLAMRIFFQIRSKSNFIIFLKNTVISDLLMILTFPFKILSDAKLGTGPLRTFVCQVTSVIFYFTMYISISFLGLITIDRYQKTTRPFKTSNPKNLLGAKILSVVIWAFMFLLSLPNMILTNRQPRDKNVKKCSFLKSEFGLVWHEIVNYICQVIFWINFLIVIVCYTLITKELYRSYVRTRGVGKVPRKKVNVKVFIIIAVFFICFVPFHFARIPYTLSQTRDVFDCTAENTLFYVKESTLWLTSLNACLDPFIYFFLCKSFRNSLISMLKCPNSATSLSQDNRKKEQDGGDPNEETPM
Description: Chinese Hamster Ovary (CHO) cells or rat 2-9 fibroblasts, which are null for Gi-linked purinergic receptors, were transfected with hP2Y12 or rP2Y12 cDNA's, respectively using FuGene reagent (Roche), and cells were cultured in the presence of G418 for 2 weeks to select for stable transfectants. For cAMP assays, stably transfected CHO cells expressing the hP2Y12 plasmid were plated in 12-well dishes. Forty-eight hours later media was removed from the cells and replaced with serum-free media containing IBMX (0.25 mM final) and incubated at 37° C. for 5 minutes. Cells were incubated for an additional 5 min with 10 μM forskolin, as well as the indicated agonists and antagonists. Pertussis toxin treatment (30 ng/ml) occurred for 20 hrs at 37° C. prior to assay. Cyclic AMP levels were determined from aliquots of cell extracts in a radioimmunoassay (Amersham Biotrak cAMP ^125I assay system).
FIG. 3(A). Receptor coupling to adenylyl cyclase was assessed as ADP-mediated (0.1-10 μM) inhibition of forskolin-stimulated (10 μM) cAMP accumulation (CON=control, normalized to 100%). (B) The effect of the specific antagonists 2MeSAMP (2-MES)(50 μM) and C1330-7 (50 μM) on repression of ADP-mediated (1 μM) forskolin-stimulated cAMP levels. (C) Effect of pertussis toxin (PTX) pretreatment on the inhibition by 10 μM ADP of forskolin-stimulated cAMP levels. Results are the mean+/−s.d. of three representative experiments performed in triplicate.

hP2Y12 [3] = target: T2, hP2Y12; assay: [3H]2MeSADP binding to membranes of COS7 cells transiently transfected with hP2Y12 (rapid filtration); settings: 4 C, 30 minutes
Description: hP2Y12 cDNA was transiently transfected into cos7 cells and crude membranes were prepared using standard procedures. Binding of 1 nM [^3H]2MeSADP at various membrane protein concentrations and in the absence and presence of various inhibitors was determined at 4 C. for 30 minutes in a rapid filtration assay (triplicates). Non-specific binding was determined with 10 uM 2MeSADP and subtracted from all data. Each experiment included membranes from untransfected cells.

hP2Y12 [4] = target: T2, hP2Y12; assay: Two-electrode voltage-clamp of Xenopus oocytes expressing hP2Y12 with Kir3.1 and 3.4: inhibition of ADP-stimulated potassium currents; type: cell-based
Description: as §1
(§3) FIG. 2(A). […] The dot (.) indicates the start of a 15 sec application of ADP, while bars denote co-application with the antagonist. (B) 2MeSAMP and C1330-7 inhibition curves. Current responses were normalized to that elicited by ADP (500 nM) alone in each oocyte and plotted as the mean+/−s.d. Curves were fitted to the data using the Hill equation (n=5 independent oocytes for each point). (C) Selective ablation of P2Y12 but not m2 muscarinic receptor signaling by the thiol reagent pCMBS. ADP (10 μM), carbachol (1 μM), and pCMBS (1 mM) were applied sequentially to an oocyte expressing both receptors concurrently with Kir3.1 and 3.4. Bars indicate periods of drug application (10 sec).

rat P2Y12 = target: T3, rat P2Y12 (Rattus norvegicus, UniProt Q9EPX4); assay: Two-electrode voltage-clamp of Xenopus oocytes expressing rat P2Y12: inhibition of ADP-evoked signal; type: cell-based
T3 construct: expressed in transfected cells; host or cells: Xenopus laevis oocytes injected with rP2Y12 cRNA (10 pg) plus Kir3.1 and Kir3.4 cRNAs
T3 sequence (Q9EPX4 whole entry): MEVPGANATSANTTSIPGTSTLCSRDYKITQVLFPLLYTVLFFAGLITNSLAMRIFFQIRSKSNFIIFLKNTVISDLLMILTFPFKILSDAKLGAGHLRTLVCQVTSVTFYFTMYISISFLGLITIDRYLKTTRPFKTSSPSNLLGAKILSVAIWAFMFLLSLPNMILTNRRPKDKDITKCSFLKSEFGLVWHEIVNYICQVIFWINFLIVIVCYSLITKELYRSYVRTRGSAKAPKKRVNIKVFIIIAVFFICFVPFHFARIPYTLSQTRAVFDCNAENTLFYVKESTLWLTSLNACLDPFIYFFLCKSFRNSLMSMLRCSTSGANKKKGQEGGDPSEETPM
Description: as §1

P2Y12 receptor [5] = assay: Two-electrode voltage-clamp of Xenopus oocytes expressing P2Y12 with Kir3.1 and 3.4: agonist-stimulated potassium currents; type: cell-based; settings: 10 μM each, FIG. 1B
Description: as §1, §2

m2 muscarinic receptor = target: T4, m2 muscarinic receptor (Homo sapiens, UniProt P08172); assay: Carbachol-activated Kir3.1/3.4 currents via m2 muscarinic receptor in the same oocytes; type: cell-based; settings: 1 mM, carbachol 1 μM, FIG. 2C
T4 construct: expressed in transfected cells; host or cells: Xenopus laevis oocytes injected with hm2 cRNA (1 ng) together with hP2Y12, Kir3.1 and Kir3.4
T4 sequence (P08172 1-466): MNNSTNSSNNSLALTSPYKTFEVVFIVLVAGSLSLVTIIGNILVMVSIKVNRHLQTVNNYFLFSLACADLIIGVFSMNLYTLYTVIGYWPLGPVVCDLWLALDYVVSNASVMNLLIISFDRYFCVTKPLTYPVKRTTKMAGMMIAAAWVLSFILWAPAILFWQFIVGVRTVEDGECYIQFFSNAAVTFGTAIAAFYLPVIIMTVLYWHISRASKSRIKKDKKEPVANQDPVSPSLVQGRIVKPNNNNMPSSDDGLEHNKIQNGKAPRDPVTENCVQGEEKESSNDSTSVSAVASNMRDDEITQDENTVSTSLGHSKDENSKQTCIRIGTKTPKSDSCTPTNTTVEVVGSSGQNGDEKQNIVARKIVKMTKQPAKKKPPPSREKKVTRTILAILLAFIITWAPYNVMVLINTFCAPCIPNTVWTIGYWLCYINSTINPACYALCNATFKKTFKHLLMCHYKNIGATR
Description: as §1
as §3, with “ADP (10 μM), carbachol (1 μM), and pCMBS (1 mM) were applied sequentially to an oocyte expressing both receptors concurrently with Kir3.1 and 3.4. Bars indicate periods of drug application (10 sec).” left out

- effect on repression of cAMP levels by 1 μM ADP (hP2Y12 [2]; antagonist 50 μM, 10 μM forskolin, FIG. 3B): reversed
- effect on forskolin-stimulated cAMP levels in the absence of agonist (hP2Y12 [2]; no agonist): Neither of these antagonists had effects
- block of ADP (1 μM) responses (hP2Y12 [4]; antagonist 10 μM, FIG. 2A): reversible block
- IC50 (hP2Y12 [4]; oocytes expressing rat or human P2Y12 (FIG. 2B: hP2Y12), ADP 500 nM, read-out: IC50, block of ADP-induced K+ currents): 1400 nM
Compound: CSc1nc(N)c2ncn([C@@H]3O[C@H](COP(=O)(O)O)[C@@H](O)[C@H]3O)c2n1 [2MeSAMP]
- competition of 1 nM [3H]2MeSADP binding to membranes from transfected cells (hP2Y12 [3]; 50 μM): essentially to the level of untransfected cells

- inhibitory effect on the signal evoked by ADP (rat P2Y12): no inhibitory effect
- competition of 1 nM [3H]2MeSADP binding to membranes from transfected cells (hP2Y12 [3]; 300 μM): only little effect
- inhibitory effect on the signal evoked by ADP (hP2Y12 [4]; human P2Y12, FIG. 2A): no inhibitory effect
Compound: Nc1ncnc2c1ncn2[C@@H]1O[C@H](COP(=O)(O)O)[C@@H](OP(=O)(O)O)[C@H]1O [A3P5P]

- agonist effect on potassium currents (P2Y12 receptor [5]): weak agonist
Compound: Nc1ncnc2c1ncn2[C@@H]1O[C@H](COP(O)(=S)OP(=O)(O)OP(=O)(O)O)[C@@H](O)[C@H]1O (stereo partly shown) [ATP-αS]

Continued, compound first:

Compound: CSc1nc(N)c2ncn([C@@H]3O[C@H](COP(=O)(O)OP(=O)(O)O)[C@@H](O)[C@H]3O)c2n1 [2MeSADP]
- EC50 (P2Y12 receptor [1]): 0.9 nM
- potency compared to ADP (P2Y12 receptor [1]; ratio of EC50s): 2 orders of magnitude

Compound: Nc1ncnc2c1ncn2[C@@H]1O[C@H](COP(=O)(O)OP(=O)(O)O)[C@@H](O)[C@H]1O [ADP, adenosine 5′-diphosphate]
- maximum reduction of forskolin-stimulated cAMP levels (hP2Y12 [2]; 10 μM ADP, 10 μM forskolin, FIG. 3A): 47%
- EC50 (P2Y12 receptor [1]): 300 nM

Compound: O=S(=O)(O)c1cc[c]([Hg][Cl])cc1 [pCMBS, p-chloromercuriphenylsulfonic acid]
- effect on activation of the signaling pathway by m2 muscarinic receptors (m2 muscarinic receptor): unaffected
- effect on ADP-evoked current responses (hP2Y12 [4]; brief exposure, 1 mM, ADP 10 μM, FIG. 2C): eliminated

Compound: pertussis toxin
- effect of pretreatment on ADP effects on forskolin-stimulated cAMP (hP2Y12 [2]; 30 ng/ml for 20 hrs, 10 μM ADP, FIG. 3C): abolished
